Measured values reported in patent publication US7501397B2, “Helical peptidomimetics with enhanced activity” (The Brigham and Women's Hospital, Inc., priority 2004, dated 2009).
Non-standard residues stand in square brackets, D forms with d. Residues, ends and D or L forms follow the SMILES beside them. *: point of attachment. Boc = CC(C)(C)OC(=O)*; Aib = CC(C)(N)C(=O)O; Bn = c1ccc(C*)cc1

Molecular target: γ-secretase (Homo sapiens, UniProt P49768)
Test: cell-free γ-secretase assay using detergent-solubilized membranes from HeLa cells and a recombinant APP-based substrate
Format: biochemical
Parameters: detergent-solubilized membranes from HeLa cells; endogenous in cells; host or cells: HeLa cells (detergent-solubilized membranes)
Settings: 50% inhibition of Aβ40 production; at least three independent experiments; read-out: Cell-free Assay IC50
Protocol: Compounds were tested in a γ-secretase assay using detergent-solubilized membranes from HeLa cells and a recombinant APP-based substrate (Table 2, 18). […] Moreover, the γ-secretase inhibition appears to show dependence on length.

| Compound | IC50 [µM] |
| --- | --- |
| CC[C@@H](C)[C@@H](NC(=O)[C@H](NC(=O)[C@H](NC(=O)C(C)(C)NC(=O)CNC(=O)[C@H](NC(=O)C(C)(C)NC(=O)[C@@H](CC(C)C)NC(=O)OC(C)(C)C)C(C)C)C(C)C)C(C)C)C(=O)NC(C)(C)C(=O)N[C@@H](C(=O)N[C@@H](C(=O)NC(C)(C)C(=O)N[C@@H](C(=O)N[C@@H](C(=O)NC(C)(C)C(=O)OC)[C@H](C)CC)C(C)C)C(C)C)[C@H](C)OCc1ccccc1 [SEQ ID NO:20 D-peptide, Boc-Leu-Aib-Val-Gly-Aib-Val-Val-Ile-Aib-Thr(OBz)-Val-Aib-Val-Ile-Aib-OMe] (Boc-[dL][Aib][dV]G[Aib][dV][dV][dI][Aib][dT](Bn)[dV][Aib][dV][dI][Aib]-OMe) | 0.016 ± 0.007 |
| CC[C@H](C)[C@H](NC(=O)[C@@H](NC(=O)[C@@H](NC(=O)C(C)(C)NC(=O)CNC(=O)[C@@H](NC(=O)C(C)(C)NC(=O)[C@H](CC(C)C)NC(=O)OC(C)(C)C)C(C)C)C(C)C)C(C)C)C(=O)NC(C)(C)C(=O)N[C@H](C(=O)N[C@H](C(=O)NC(C)(C)C(=O)N[C@H](C(=O)N[C@H](C(=O)NC(C)(C)C(=O)OC)[C@@H](C)CC)C(C)C)C(C)C)[C@@H](C)OCc1ccccc1 [SEQ ID NO:20 L-peptide, Boc-Leu-Aib-Val-Gly-Aib-Val-Val-Ile-Aib-Thr(OBz)-Val-Aib-Val-Ile-Aib-OMe] (Boc-L[Aib]VG[Aib]VVI[Aib]T(Bn)V[Aib]VI[Aib]-OMe) | 4.7 |
| CC[C@H](C)[C@H](NC(=O)[C@@H](NC(=O)[C@@H](NC(=O)C(C)(C)NC(=O)OC(C)(C)C)C(C)C)C(C)C)C(=O)NC(C)(C)C(=O)N[C@H](C(=O)N[C@H](C(=O)NC(C)(C)C(=O)N[C@H](C(=O)N[C@H](C(=O)NC(C)(C)C(=O)OC)[C@@H](C)CC)C(C)C)C(C)C)[C@@H](C)OCc1ccccc1 [SEQ ID NO:16 L-peptide, Boc-Aib-Val-Val-Ile-Aib-Thr(OBz)-Val-Aib-Val-Ile-Aib-OMe] (Boc-[Aib]VVI[Aib]T(Bn)V[Aib]VI[Aib]-OMe) | 3.1 |
| CC[C@@H](C)[C@@H](NC(=O)[C@H](NC(=O)[C@H](NC(=O)C(C)(C)NC(=O)CNC(=O)[C@H](NC(=O)C(C)(C)NC(=O)[C@@H](CC(C)C)NC(=O)CNC(=O)OC(C)(C)C)C(C)C)C(C)C)C(C)C)C(=O)NC(C)(C)C(=O)N[C@@H](C(=O)N[C@@H](C(=O)NC(C)(C)C(=O)N[C@@H](C(=O)N[C@@H](C(=O)NC(C)(C)C(=O)OC)[C@H](C)CC)C(C)C)C(C)C)[C@H](C)OCc1ccccc1 [SEQ ID NO:21 D-peptide, Boc-Gly-Leu-Aib-Val-Gly-Aib-Val-Val-Ile-Aib-Thr(OBz)-Val-Aib-Val-Ile-Aib-OMe] (Boc-G[dL][Aib][dV]G[Aib][dV][dV][dI][Aib][dT](Bn)[dV][Aib][dV][dI][Aib]-OMe) | 0.026 ± 0.021 |
| CC[C@H](C)[C@H](NC(=O)[C@@H](NC(=O)[C@@H](NC(=O)C(C)(C)NC(=O)CNC(=O)[C@@H](NC(=O)OC(C)(C)C)C(C)C)C(C)C)C(C)C)C(=O)NC(C)(C)C(=O)N[C@H](C(=O)N[C@H](C(=O)NC(C)(C)C(=O)N[C@H](C(=O)N[C@H](C(=O)NC(C)(C)C(=O)OC)[C@@H](C)CC)C(C)C)C(C)C)[C@@H](C)OCc1ccccc1 [SEQ ID NO:18 L-peptide, Boc-Val-Gly-Aib-Val-Val-Ile-Aib-Thr(OBz)-Val-Aib-Val-Ile-Aib-OMe] (Boc-VG[Aib]VVI[Aib]T(Bn)V[Aib]VI[Aib]-OMe) | 0.78 |

Same assay, conditions: L-series, cell-free assay

| Compound | increase in potency over the reference L-decapeptide having SEQ ID NO:10 [fold] |
| --- | --- |
| CC[C@H](C)[C@H](NC(=O)[C@@H](NC(=O)[C@@H](NC(=O)C(C)(C)NC(=O)CNC(=O)[C@@H](NC(=O)OC(C)(C)C)C(C)C)C(C)C)C(C)C)C(=O)NC(C)(C)C(=O)N[C@H](C(=O)N[C@H](C(=O)NC(C)(C)C(=O)N[C@H](C(=O)N[C@H](C(=O)NC(C)(C)C(=O)OC)[C@@H](C)CC)C(C)C)C(C)C)[C@@H](C)OCc1ccccc1 [SEQ ID NO:18 L-peptide, Boc-Val-Gly-Aib-Val-Val-Ile-Aib-Thr(OBz)-Val-Aib-Val-Ile-Aib-OMe] (Boc-VG[Aib]VVI[Aib]T(Bn)V[Aib]VI[Aib]-OMe) | ~40 |

Tested on: Aβ production in Chinese hamster ovary (CHO) cells stably transfected with human APP
Test: cell-based assay of total Aβ production in CHO cells stably transfected with human APP
Settings: CHO cells stably transfected with human APP; total Aβ; read-out: IC50 (concentration that reduced production of total Aβ by 50%)
Excerpt: Based on the helical model for the APP transmembrane domain, short peptides were designed to adopt a similar conformation that block γ-secretase activity. Judicious replacement of selected residues of short APP-derived peptides with 2-aminoisobutyric acid (Aib), a known helix-inducing amino acid (19, 20), provided peptides that, in principle, mimic the γ-secretase cleavage site on one face of the helix, with Aib residues on the other face. Aib-containing peptides were identified that inhibit Aβ production in APP-transfected cells with 50 percent inhibitory concentrations (IC50's) as low as 2 μM. […] The crystal structure of this compound has been determined, and the peptide is fully helical (19). In certain embodiments the compounds of the invention have structures that are based on the partial APP sequence Val-Gly-Gly-Val-Val-Ile-Ala-Thr-Val-Ile-Val-Ile (SEQ ID NO:12; see FIG. 1). Basing the structures of the compounds of the invention on the partial APP sequence could enhance in vivo specificity of the compounds.
The top set of peptidomimetics (SEQ ID NOs: 1-5) was designed considering the cleavage leading to Aβ42, and the bottom set (SEQ ID NOs: 6-10) was designed considering the cleavage site leading to Aβ40. IC50 is the concentration of compound that reduced production of total Aβ by 50% in a cell-based assay using Chinese hamster ovary (CHO) cells stably transfected with human APP.
Starting from the reference D-decapeptide having SEQ ID NO:10 (IC50=90 nM), the enantiomers of the helical peptide L-series were tested for inhibitory activity. […] This greater than 40-fold loss of activity compared to the cell-free assay may be due to the need to enter into and/or cross cell membranes or some susceptibility to metabolic degradation.

| Compound | IC50 [µM] |
| --- | --- |
| Boc-Ala-Thr(OBz)-Aib-Ile-Val-Aib-OMe [SEQ ID NO:1] | 25 |
| Boc-Gly-Val-Aib-Ile-Ala-Thr(OBz)-Aib-Ile-Val-Aib-OMe [SEQ ID NO:5] | 5 |
| Boc-Val-Aib-Ile-Ala-Thr(OBz)-Aib-Ile-Val-Aib-OMe [SEQ ID NO:4] | 2 |
| Boc-Val-Ile-Aib-Thr(OBz)-Val-Aib-OMe [SEQ ID NO:6] | 12 |
